Data reported in PubChem BioAssay (NCI).
“And” between values parts separate entries of the source, which are not always exact repeats. Identical values can stand only once.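 Five compound concentrations were applied to cells in 96-well plates for 48 hours; endpoints were derived by simple linear interpolation of the resulting dose-response curve. GI50 = concentration required for 50% inhibition of growth. At the TGI there is no net growth.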 Where a SMILES comes first, the peptide text is derived from it. [ ]: non-standard residue; d: D form. The star is where a group is joined. Phe(4-NO2) = N[CH](Cc1ccc([N+](=O)[O-])cc1)C(=O)O; Boc = CC(C)(C)OC(=O)*; OtBu = CC(C)(C)O*

Key:
Experiment in all cases: NCI-60 cell line screen, 48 h
MOLT-4 leukemia = system: MOLT-4 leukemia
UACC-62 melanoma = system: UACC-62 melanoma
HL-60(TB) leukemia = system: HL-60(TB) leukemia
HT29 colon = system: HT29 colon
ACHN renal = system: ACHN renal
NCI-H460 lung = system: NCI-H460 lung
HOP-92 NSCLC = system: HOP-92 NSCLC
RPMI-8226 leukemia = system: RPMI-8226 leukemia
SK-MEL-28 melanoma = system: SK-MEL-28 melanoma
CAKI-1 renal = system: CAKI-1 renal

SMILES	TGI (MOLT-4 leukemia)	TGI (UACC-62 melanoma)	TGI (HL-60(TB) leukemia)	TGI (HT29 colon)	TGI (ACHN renal)	TGI (NCI-H460 lung)	TGI (HOP-92 NSCLC)	TGI (RPMI-8226 leukemia)	TGI (SK-MEL-28 melanoma)	TGI (CAKI-1 renal)	GI50 (MOLT-4 leukemia)	GI50 (HL-60(TB) leukemia)	GI50 (HT29 colon)	GI50 (ACHN renal)	GI50 (RPMI-8226 leukemia)	GI50 (SK-MEL-28 melanoma)	GI50 (CAKI-1 renal)	GI50 (UACC-62 melanoma)	GI50 (NCI-H460 lung)	GI50 (HOP-92 NSCLC)
COc1ccc([C@@]23CCC(=O)C[C@@H]2N(C)CC3)cc1OC	> 100 µM	> 100 µM	> 100 µM	> 100 µM	> 100 µM	> 100 µM	> 100 µM	> 100 µM	> 100 µM	> 100 µM	–	–	–	–	–	–	–	–	–	–
Cc1cc(S(=O)(=O)NC(=NCC(=O)NN)NN)c(S)cc1Cl	> 10 µM	> 10 µM	> 10 µM	> 10 µM	> 10 µM	> 10 µM	> 10 µM	> 10 µM	> 10 µM	> 10 µM	–	–	–	–	–	–	–	–	–	–
O=C(NCCCCl)c1c(O)c2ccccc2[nH]c1=O	> 100 µM	> 100 µM	> 100 µM	> 100 µM	> 100 µM	> 100 µM	> 75.7 µM	> 100 µM	> 100 µM	> 100 µM	–	–	–	–	–	–	–	–	–	–
COC1=CC2(C=CC1=O)CCN=c1c(O)c3c(c(O)c12)=NC=N3 (stereo not drawn)	> 100 µM	> 100 µM	> 100 µM	> 100 µM	> 100 µM	> 100 µM	> 100 µM	> 100 µM	> 100 µM	> 100 µM	–	–	–	–	–	–	–	–	–	–
COC(=O)C1(Cc2ccccc2)Cc2ccccc2C1=O (stereo not drawn)	90.9 µM	> 100 µM	51.1 µM	> 100 µM	> 100 µM	> 100 µM	> 100 µM	> 100 µM	> 100 µM	> 100 µM	–	–	–	–	–	–	–	–	–	–
COc1cc(O)c2c(c1)C(O)C(O)CC1OC1C(=O)/C=C/CC(C)OC2=O (stereo not drawn)	17.2 µM	3.2 µM	> 23.4 µM	10 µM	17 µM	25.6 µM	2.72 µM	34.5 µM	12 µM	11.5 µM	–	–	–	–	–	–	–	–	–	–
O=C(O)c1ccc(Nc2cnc3ccc(C(F)(F)F)cc3n2)cc1	44.5 µM	29.2 µM	20.7 µM	33.6 µM	32.6 µM	87.9 µM	38.9 µM	48 µM	> 100 µM	30.9 µM	–	–	–	–	–	–	–	–	–	–
N#Cc1nnc2c3c(-c4ccc(Cl)cc4)c(C#N)c(=O)[nH]c3nn2c1N	14.1 µM	4.44 µM	> 100 µM	21.2 µM	21.9 µM	52.6 µM	27.9 µM	51.1 µM	44.5 µM	16.4 µM	–	–	–	–	–	–	–	–	–	–
COC(=O)C(Cc1ccccc1)NC(=O)CCCNC(=O)OCc1ccccc1 (stereo not drawn)	> 100 µM	> 100 µM	> 100 µM	> 100 µM	> 100 µM	> 100 µM	> 100 µM	> 100 µM	> 100 µM	> 100 µM	–	–	–	–	–	–	–	–	–	–
COC(=O)C(Cc1ccc([N+](=O)[O-])cc1)NC(=O)C(CC(=O)OC(C)(C)C)NC(=O)OC(C)(C)C (stereo not drawn) (Boc-Asp(OtBu)-[Phe(4-NO2)]-OMe; configuration not given here)	> 100 µM	> 100 µM	> 100 µM	> 100 µM	> 100 µM	> 100 µM	> 100 µM	> 100 µM	57.4 µM	> 100 µM	–	–	–	–	–	–	–	–	–	–
CC(C)[Si]1(C(C)C)OCC2OC(n3cnc4c(N)ncnc43)C(N)C2O[Si](C(C)C)(C(C)C)O1 (stereo not drawn)	7.84 µM	27.4 µM	> 28.2 µM	26.9 µM	21.6 µM	27.5 µM	33 µM	7.72 µM	> 72.1 µM	35.3 µM	–	–	–	–	–	–	–	–	–	–
CSc1nc(Br)nc2c1ncn2C1CC(Oc2ccc(C)cc2)C(COc2ccc(C)cc2)O1 (stereo not drawn)	> 100 µM	> 100 µM	> 100 µM	> 100 µM	> 100 µM	> 100 µM	> 100 µM	> 100 µM	> 100 µM	> 100 µM	–	–	–	–	–	–	–	–	–	–
O=C(CCN1CCCCC1CO)Nc1ccc2c(c1)C(=O)c1ccc(NC(=O)CCN3CCCCC3CO)cc1C2=O (stereo not drawn)	35.7 µM	23.6 µM	29.8 µM	31.6 µM	32 µM	24.2 µM	37.2 µM	48 µM	28.4 µM	57.6 µM	–	–	–	–	–	–	–	–	–	–
BrCC[P+](c1ccccc1)(c1ccccc1)c1ccccc1	24.3 µM	21.9 µM	5.33 µM	30.2 µM	> 100 µM	73.3 µM	13.1 µM	8.08 µM	19.5 µM	25.2 µM	–	–	–	–	–	–	–	–	–	–
O=C1O/C(=C\c2ccc(O)cc2)C(c2ccc(O)c(Cl)c2)=C1Br	49 µM	28.9 µM	51.2 µM	29.9 µM	30 µM	38.7 µM	32.1 µM	30.7 µM	26.2 µM	49.3 µM	–	–	–	–	–	–	–	–	–	–
C=CCOn1c(C=C)nc2c(C)cccc21	17 µM	6.93 µM	5.1 µM	11.6 µM	7.15 µM	5.04 µM	34.4 µM	17.1 µM	25.7 µM	5.25 µM	–	–	–	–	–	–	–	–	–	–

SMILES	TGI (MOLT-4 leukemia)	TGI (UACC-62 melanoma)	TGI (HL-60(TB) leukemia)	TGI (HT29 colon)	TGI (ACHN renal)	TGI (NCI-H460 lung)	TGI (HOP-92 NSCLC)	TGI (RPMI-8226 leukemia)	TGI (SK-MEL-28 melanoma)	TGI (CAKI-1 renal)	GI50 (MOLT-4 leukemia)	GI50 (HL-60(TB) leukemia)	GI50 (HT29 colon)	GI50 (ACHN renal)	GI50 (RPMI-8226 leukemia)	GI50 (SK-MEL-28 melanoma)	GI50 (CAKI-1 renal)	GI50 (UACC-62 melanoma)	GI50 (NCI-H460 lung)	GI50 (HOP-92 NSCLC)
CCCCC(=C=C1CCCCC1O)C1CCCN1C(=O)OC(C)(C)C (stereo not drawn)	33.5 µM	23.4 µM	25.5 µM	27.3 µM	29.2 µM	31 µM	26 µM	32.6 µM	29.6 µM	24.4 µM	–	–	–	–	–	–	–	–	–	–
COC(=O)c1ccc(OCc2ccc3nc(-c4ccccc4)c(Cl)nc3c2)cc1	> 100 µM	> 100 µM	> 100 µM	> 100 µM	> 100 µM	> 100 µM	> 100 µM	> 100 µM	> 100 µM	69.9 µM	–	–	–	–	–	–	–	–	–	–
CSC1(SC)CCCCCCCCCCC1	> 100 µM	> 100 µM	> 100 µM	> 100 µM	> 100 µM	> 100 µM	87.5 µM	> 100 µM	> 100 µM	> 100 µM	–	–	–	–	–	–	–	–	–	–
CN(C)CCNc1nc2ccccc2c2c1C(=O)c1ccccc1-2	0.098 µM	0.437 µM	0.812 µM	3.5 µM	0.601 µM	0.415 µM	3.07 µM	0.599 µM	2.84 µM	2.54 µM	–	–	–	–	–	–	–	–	–	–
O=C(O)c1ccccc1-c1ccccc1C(=O)c1ccccc1	> 100 µM	> 100 µM	> 100 µM	> 100 µM	> 100 µM	> 100 µM	> 100 µM	> 100 µM	> 100 µM	> 100 µM	–	–	–	–	–	–	–	–	–	–
C/C(=C/CC[C@](C)(OC1OC(CO)C(O)C(O)C1O)[C@H]1CC[C@]2(C)[C@@H]1CC[C@@H]1[C@@]3(C)CC[C@H](O)C(C)(C)[C@@H]3C[C@H](O)[C@]12C)CO (stereo partly drawn)	53.6 µM	58.3 µM	49.9 µM	45.1 µM	> 100 µM	48.9 µM	> 100 µM	28.3 µM	38.5 µM	81.6 µM	–	–	–	–	–	–	–	–	–	–
CCOC(=O)Cc1nc2c(=O)[nH]cnc2n1C1OC(COC(C)=O)C(OC(C)=O)C1OC(C)=O (stereo not drawn)	> 100 µM	> 100 µM	> 100 µM	> 100 µM	> 100 µM	> 100 µM	> 100 µM	> 100 µM	> 100 µM	> 100 µM	–	–	–	–	–	–	–	–	–	–
O=C(CCCN1CCc2[nH]c3cc(F)ccc3c2C1)c1ccc(F)cc1	29 µM	25.5 µM	27.2 µM	20.5 µM	26.8 µM	23.9 µM	8.59 µM	27.2 µM	34.9 µM	> 100 µM	–	–	–	–	–	–	–	–	–	–
Cn1c(=O)c2[nH]c(N/N=C3/SCC(=O)N3Cc3ccccc3)nc2n(C)c1=O	> 100 µM	> 100 µM	> 100 µM	> 100 µM	> 100 µM	> 100 µM	87.7 µM	> 100 µM	> 100 µM	> 100 µM	–	–	–	–	–	–	–	–	–	–
CCOP(=O)(OCC)C(F)(F)CC1CCCCC1	> 10 µM	> 10 µM	> 10 µM	> 10 µM	> 10 µM	> 10 µM	> 10 µM	> 10 µM	> 10 µM	> 10 µM	–	–	–	–	–	–	–	–	–	–
COc1ccccc1OC/C(N=Cc1ccncc1)=N/NC(=O)c1ccncc1	> 100 µM	> 100 µM	> 100 µM	> 100 µM	> 100 µM	> 100 µM	> 100 µM	> 100 µM	> 100 µM	> 100 µM	–	–	–	–	–	–	–	–	–	–
COC1(OC)/C(=C(\N)C=O)NC(C)(C)N1O	> 100 µM	> 100 µM	55.9 µM	> 100 µM	> 100 µM	> 100 µM	> 100 µM	> 100 µM	> 100 µM	> 100 µM	–	–	–	–	–	–	–	–	–	–
CN1C/C(=C\c2ccccc2[N+](=O)[O-])C(=O)/C(=C/c2ccccc2[N+](=O)[O-])C1	1.02 µM and 0.572 µM	2.13 µM and 3.79 µM	0.632 µM and 0.41 µM	0.325 µM and 0.409 µM	1.46 µM and 0.628 µM	4.56 µM and 8.89 µM	2.75 µM and 2.61 µM	–	3.15 µM and 4.18 µM	1.41 µM and 0.545 µM	0.308 µM	0.239 µM	0.173 µM and 0.169 µM	0.532 µM and 0.228 µM	0.592 µM and 0.116 µM	0.906 µM and 1.83 µM	0.475 µM and 0.234 µM	–	–	–
CN(Cc1nc2c(N)nc(N)nc2nc1N)c1ccc(C(=O)NC(CCC(=O)O)C(=O)O)cc1 (stereo not drawn)	> 100 µM	> 100 µM	> 100 µM	> 100 µM	> 100 µM	> 100 µM	> 100 µM	> 100 µM	> 100 µM	> 88 µM	–	–	–	–	–	–	–	–	–	–
OCc1ccccc1OC1OC(CO)C(O)C(O)C1O (stereo not drawn)	> 100 µM	> 100 µM	> 100 µM	> 100 µM	> 100 µM	> 100 µM	> 100 µM	> 100 µM	> 100 µM	> 100 µM	–	–	–	–	–	–	–	–	–	–
CC(=O)c1c(O)c(C)c(O)c2c1OC1=CC(=O)C(C(C)=O)C(=O)C12C (stereo not drawn)	13.5 µM and 59.4 µM	20.1 µM and 26.4 µM	8.9 µM and 43 µM	29.3 µM and 70.2 µM	–	20.4 µM and 43.7 µM	9.69 µM and 57.1 µM	24.2 µM and 49.7 µM	40.9 µM and 22 µM	79.8 µM and 26.8 µM	3.37 µM and 20.1 µM	3.15 µM and 16.4 µM	6.28 µM and 25.7 µM	–	3.88 µM and 9.02 µM	–	29.5 µM and 10.5 µM	4.86 µM and 12.7 µM	5.29 µM and 14.5 µM	5.38 µM and 18.7 µM
